System: T1, alcohol oxidase (AOX) from Cerrena unicolor FCL139
T1 construct: native, semi-purified from mycelium (ammonium sulphate, HIC, SEC); octamer stated as typical; no tag
Test: acetylacetone assay ([…],5-diacetyl-1,4-dihydrolutidine), Michaelis-Menten non-linear fit
Type: biochemical
Details: semi-purified native enzyme; substrate 1-100 mM; pH and temperature of the kinetics not given

| SMILES | Km |
| --- | --- |
| OC[C@H](O)C(O)[C@@H](O)CO [L-arabinitol] | 37 ± 3 mM |
| CO [Methanol] | 13 ± 1 mM |
| COc1ccc(CO)cc1OC [Veratryl alcohol] | 31 ± 4 mM |

Reference: publication PMC11593814, “Novel Basidiomycetous Alcohol Oxidase from Cerrena unicolor—Characterisation, Kinetics, and Proteolytic Modifications” (International Journal of Molecular Sciences, 2024)
